Values of other authors, collected in patent US6432400B1, “Specific pancreatic lipase inhibitors and their applications” (Laboratoire Laphal (Laboratoire de Pharmacologie Appliquee), priority 1997, dated 2002).

Key:
pancreatic lipase = molecular target: T1, pancreatic lipase (Homo sapiens, UniProt P16233); settings: 1 mol of THL/mol of enzyme
T1 sequence (P16233 17-465): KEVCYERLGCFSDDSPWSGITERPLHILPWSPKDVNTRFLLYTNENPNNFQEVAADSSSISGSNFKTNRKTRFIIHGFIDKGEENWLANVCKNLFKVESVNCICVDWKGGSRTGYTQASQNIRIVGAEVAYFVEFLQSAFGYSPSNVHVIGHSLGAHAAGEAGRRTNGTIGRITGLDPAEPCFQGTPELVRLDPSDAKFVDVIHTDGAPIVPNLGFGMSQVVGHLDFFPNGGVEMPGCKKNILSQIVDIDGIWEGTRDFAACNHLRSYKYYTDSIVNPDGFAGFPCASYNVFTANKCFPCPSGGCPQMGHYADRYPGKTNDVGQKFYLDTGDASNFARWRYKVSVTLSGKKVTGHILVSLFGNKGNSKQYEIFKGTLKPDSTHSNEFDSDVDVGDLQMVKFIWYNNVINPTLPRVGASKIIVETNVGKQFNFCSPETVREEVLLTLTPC

[1] = test system: carboxylester lipase, gastric lipase and lipase stimulated by the bile salts in human milk; settings: inhibits carboxylester lipase, gastric lipase and bile-salt-stimulated lipase of human milk

In the case of `CCCCCCCCCCC[C@@H](C[C@@H]1OC(=O)[C@H]1CCCCCC)OC(=O)[C@H](CC(C)C)NC=O` [THL, tetrahydrolipstatin], the “inhibition of the lipolytic activity” value (pancreatic lipase) is given as “complete inhibition” and the “specificity for pancreatic lipase” value [1] is given as “not specific for pancreatic lipase”.
